# Assay results taken from patent publication US20190328822A1, “METHODS AND COMPOSITIONS FOR PREVENTING OR TREATING DOMINANT OPTIC ATROPHY” (STEALTH BIOTHERAPEUTICS CORP, priority 2014, published 2019).
# Non-standard residues stand in square brackets, D forms with d. No end group written: not given here.
# Experiments:
# [1] = tested on: plasma membrane of several mammalian cell types; details: energy-independent manner; cited from earlier work
# reactive oxygen species = details: cited from earlier work
# [2] = cited from earlier work
# LHON patients [3] = details: cited from earlier work
# LHON patients [4] = details: 85 LHON patients, 900 mg/d for 24 weeks; cited from earlier work
# [5] = tested on: Human subjects at risk of having, suspected of having, or diagnosed as having DOA; assay: Treatment and prevention of DOA in human subjects, ophthalmic solution (Example 2); assay type: in vivo; details: 1 drop of 1%, 3%, or 5% ophthalmic solution three times per day for 18 months
# Procedure: Human subjects at risk of having (e.g., diagnosed with an OPA1 gene mutation, but who are not yet symptomatic, e.g., no visual impairment), suspected of having, or diagnosed as having DOA are administered a therapeutically effective amount of an aromatic-cationic peptide of the present technology, such as D-Arg-2′,6′-Dmt-Lys-Phe-NH2, alone or in conjunction with one or more additional therapeutic agents. Subjects will receive 1 drop of 1%, 3%, or 5% D-Arg-2′,6′-Dmt-Lys-Phe-NH2 ophthalmic solution in a randomly selected study eye three times per day for 18 months. The remaining eye of these subjects serves as the untreated internal control. The patients in the control group will be administered 1 drop of vehicle solution in one of their eyes (fellow control eye) three times per day over the course of the 18 month study. Subjects are assessed weekly for signs and symptoms associated with DOA according to one or more criteria described herein (e.g., one or more of visual loss, optic nerve atrophy, palor of the neuroretianl rim, presence of temporal pigmentary grey cresent, thinning of the fiber layer at the optic nerve rim, papillary excavation, scotoma, changes in color vision, etc.).
# mu-opioid receptor = mu-opioid receptor (Homo sapiens, UniProt P35372); assay: mu-opioid receptor agonist activity
# Sequence of mu-opioid receptor (P35372 whole entry, species assumed): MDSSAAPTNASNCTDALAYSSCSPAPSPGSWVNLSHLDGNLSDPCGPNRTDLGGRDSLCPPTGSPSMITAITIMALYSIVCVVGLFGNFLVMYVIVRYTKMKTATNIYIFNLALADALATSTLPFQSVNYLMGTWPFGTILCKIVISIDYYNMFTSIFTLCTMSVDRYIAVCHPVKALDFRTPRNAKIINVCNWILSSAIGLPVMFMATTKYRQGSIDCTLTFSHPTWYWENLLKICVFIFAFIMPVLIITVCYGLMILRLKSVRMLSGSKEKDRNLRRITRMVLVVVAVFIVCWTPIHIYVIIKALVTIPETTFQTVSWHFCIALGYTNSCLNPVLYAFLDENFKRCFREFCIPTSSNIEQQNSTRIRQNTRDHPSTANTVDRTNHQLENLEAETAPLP
molecule,measurement,setting,value
"2′,6′-Dmt-D-Arg-Phe-Lys-NH2",penetration of the plasma membrane,[1],readily penetrates
Cc1c(C)c2c(c(C)c1O)CCC(C)(C(=O)O)O2 (centres unmarked) [Trolox],protective effects in vitro,reactive oxygen species,modest protective effects
COC1=C(OC)C(=O)C(C/C=C(\C)CC/C=C(\C)CC/C=C(\C)CC/C=C(\C)CC/C=C(\C)CC/C=C(\C)CC/C=C(\C)CC/C=C(\C)CC/C=C(\C)CCC=C(C)C)=C(C)C1=O [coenzyme Q-10],protective effects in vitro,reactive oxygen species,modest protective effects
same,delivery crossing lipid membranes to mitochondria,[2]; exogenous,poor delivery
N[C@@H](CCC(=O)N[C@@H](CS)C(=O)NCC(=O)O)C(=O)O [glutathione],protective effects in vitro,reactive oxygen species,modest protective effects
COC1=C(OC)C(=O)C(CCCCCCCCCCO)=C(C)C1=O [idebenone],delivery to mitochondria,[2]; compared with coenzyme Q10,higher delivery to mitochondria
same,efficiency in crossing the blood-brain barrier,[2]; compared with coenzyme Q10,higher efficiency in crossing the blood-brain barrier
same,diameter of the central scotomas after treatment,"LHON patients [3]; one 11778/ND4 LHON patient, from about 20 degrees",less than 5 degrees
same,"recovery of visual acuity, color vision, and visual fields","LHON patients [3]; seven LHON patients, about 450 mg/d","showed recovery of visual acuity, color vision, and visual fields"
same,final visual acuity vs placebo group,LHON patients [4],better final visual acuity than the placebo group
"D-Arg-2′,6′-dimethyltyrosine-Lys-Phe-NH2 [D-Arg-2′,6′-Dmt-Lys-Phe-NH2]",onset and severity of the symptoms of DOA,[5],"prevent the onset of, delay the onset of, and/or reduce the severity of the symptoms of DOA"
same,mu-opioid receptor agonist activity,mu-opioid receptor,does not have mu-opioid receptor agonist activity
F[dR]FK-NH2,mu-opioid receptor agonist activity,mu-opioid receptor,does not have mu-opioid receptor agonist activity
Tyr-D-Arg-Phe-Lys-NH2,mu-opioid receptor agonist activity,mu-opioid receptor,has mu-opioid receptor agonist activity
